# In paper PMC10796807 (Computational and Structural Biotechnology Journal, 2023):
# Like-named read-outs stand apart in the source and are kept apart here.
# Legend:
# rat TRPV2 (rTRPV2-eGFP) = biological target: T1, rat TRPV2 (rTRPV2-eGFP) (Rattus norvegicus, UniProt Q9WUD2); format: biochemical; conditions: for EC50: no inhibitor
# T1 sequence (Q9WUD2 1-761): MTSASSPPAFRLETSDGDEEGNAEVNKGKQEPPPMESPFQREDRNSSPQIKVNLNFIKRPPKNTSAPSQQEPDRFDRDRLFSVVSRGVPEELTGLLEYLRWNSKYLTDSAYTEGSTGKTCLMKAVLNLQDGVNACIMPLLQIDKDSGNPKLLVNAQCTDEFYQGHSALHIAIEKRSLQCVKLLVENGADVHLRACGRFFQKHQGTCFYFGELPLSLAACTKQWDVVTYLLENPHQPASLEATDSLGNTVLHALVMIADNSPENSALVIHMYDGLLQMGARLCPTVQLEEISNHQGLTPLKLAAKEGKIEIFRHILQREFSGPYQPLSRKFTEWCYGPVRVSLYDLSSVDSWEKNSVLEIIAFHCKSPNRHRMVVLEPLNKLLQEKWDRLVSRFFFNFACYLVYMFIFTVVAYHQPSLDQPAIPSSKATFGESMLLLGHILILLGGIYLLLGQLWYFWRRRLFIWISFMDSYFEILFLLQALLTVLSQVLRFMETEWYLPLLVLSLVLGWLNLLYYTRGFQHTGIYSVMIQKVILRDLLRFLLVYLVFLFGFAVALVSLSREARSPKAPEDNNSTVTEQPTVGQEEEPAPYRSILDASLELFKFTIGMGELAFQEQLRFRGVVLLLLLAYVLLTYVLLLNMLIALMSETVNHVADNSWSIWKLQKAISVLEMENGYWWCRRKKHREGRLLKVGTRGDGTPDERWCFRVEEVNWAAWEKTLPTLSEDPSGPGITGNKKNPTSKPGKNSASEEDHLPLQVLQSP
# rat TRPV2 = conditions: cells pretreated with 2.5 mM PBCD; ref [22]; cited from earlier work
# mouse or rat TRPV2 = conditions: read-out: reported EC50 values; ref [40]; cited from earlier work
# human TRPV2 = conditions: ref [40]; cited from earlier work
compound,measurement,setting,value
"C=C(C)[C@@H]1CCC(C)=C[C@H]1c1c(O)cc(CCCCC)cc1O [CBD, cannabidiol]",EC50,"rat TRPV2 (rTRPV2-eGFP); EC50 (Bayesian, 90% confidence interval in brackets), TRPV2-GFP vesicles",110 µM
same,EC50,rat TRPV2,3.7 µM
same,EC50,mouse or rat TRPV2,10 to 1000 nM
same,activation,human TRPV2,no activation of human TRPV2
"O=C(O)c1ccc(S(=O)(=O)N2CCCCC2)cc1 [Compound 6, 4-(Piperidine-1-sulfonyl)-benzoic acid]",Confidence that EC50 is lower than that of PBCD (Bayesian hypothesis test),rat TRPV2 (rTRPV2-eGFP),84%
COc1cc(CNC(=O)CCCC/C=C/C(C)C)ccc1O [capsaicin],Activation/modulation of TRPV2 (fluorescence signal),"rat TRPV2 (rTRPV2-eGFP); negative controls, TRPV2-GFP vesicles",no measurable increase of fluorescence signal
lysophosphatidylcholine [LPC],EC50,"rat TRPV2 (rTRPV2-eGFP); read-out: EC50 (Bayesian, 90% confidence interval in brackets), TRPV2-GFP vesicles",36 µM
